What all share (assay type): cell-based
For series [1], the system named is sphere cultured SKOV3ip1 ovarian cancer cells. In words: crystal violet cell viability, 3D sphere culture. As to conditions: for cell viability: sphere cultured SKOV3ip1, 72 hours, different concentrations, crystal violet colorimeter (FIG. 3). How it is done: (§1) For 3D sphere culture, SKOV3ip1 cells (1×10^6) were dispensed on ultra-low adherent 6-well plate (Corning NY, USA), and then, cultured in 5% CO2 incubator using RPMI 1640 medium supplemented with 10% fetal bovine serum (Gibco, NY, USA) and 10 U/ml penicillin/streptomycin (Gibco).
In order to assess the cell viability in the sphere cultured cells, the SKOV3ip1 cells (5×10^4) were dispensed on the super-low adherent 24-well plate and cultured overnight. The cells were harvested from each well and the commercial 24-well plate was moved, followed by further incubation for 12 hours. The adhered and visualized cells were stained with 0.2% crystal violet solution for 20 minutes while gently agitating the same. The stained cells were washed with distilled water until a clean background is observed. For assessment using a colorimeter, the crystal violet dye was extracted with 1% SDS/PBS and absorbance was measured at 570 nm wavelength by EMax PLUS microplate reader (Molecular Device, USA).
(§2) The monolayer cultured or sphere cultured SKOV3ip1 cells were treated with the tyrosine kinase inhibitor and paclitaxel for 72 hours, the cell viability was determined by the crystal violet colorimeter, and results thereof are shown in FIG. 3.
Since the cell survival of the sphere cultured SKOV3ip1 cells is inhibited by BGJ398 treatment, whether such cell survival inhibition is intermediated through JAK/STAT3 signaling pathway was further examined. For this purpose, the selective JAK tyrosine kinase inhibitor AG490 was used at different concentrations of 3.125 to 50 μM in order to treat the monolayer cultured or sphere cultured SKOV3ip1 cells, and after 72 hours, whether it affects the cell viability and AKT and STAT3 activation was examined through crystal violet staining and immunostaining assay, and results thereof are shown in FIG. 7. Actin was used as a loading control group.
Under this ground, when administering BGJ398 in combination with paclitaxel typically used as the existing primary anticancer drug for ovarian cancer, whether paclitaxel resistance of the sphere cultured cells is overcome and improved was determined.

Series [2] deals with AKT and STAT3 phosphorylation in sphere cultured SKOV3ip1 cells. Kind of series: immunostaining of AKT and STAT3 phosphorylation, sphere culture. As to conditions: for phosphorylated AKT at Ser473: sphere cultured, 5 μM BGJ398, 3 μM TAE648, 5 μM imatinib, 72 hours (FIG. 6). The source says: In order to identify whether a change in signaling pathways associated with cell survival appears or not according to 2D monolayer culture (2D MC) and 3D sphere culture (3D SC), immunostaining was implemented. More particularly, after culturing SKOV3ip1 cells (1×10^6) by 2D monolayer culture or 3D sphere culture described in section 1.1, expression of cell-signaling molecules including AKT, STAT3, p42/44 ERK and p38 MAPK was detected and activation states in the monolayer cultured cells and the sphere cultured cells were compared. The monolayer cultured or sphere cultured SKOV3ip1 cells were harvested and washed once with ice-cold 1× phosphate buffered saline, followed by dissolving the same in 100 μl ice-cold RIPA buffer (20 mM Tris-Cl, pH 8.0, 125 mM NaCl, […], 1 mM ethylene diamine tetraacetic acid, 1% Triton X-100, 0.5% sodium deoxycholate, 0.1% sodium dodecyl sulfate, 1× complete protease inhibitor cocktail (Roche, Mannheim, Germany)) on ice. After assessing the protein concentration using a Bradford Protein assay kit (Biorad, CA, USA), the same amount of proteins (30 μg) was separated by SDS-PAGE and moved to a nitrocellulose membrane, followed by immunostaining the same using a horseradish peroxide conjugated second antibody and a specific antibody. An immune activation band was detected with SuperSignal West Pico Chemiluminescent Substrate (Thermo, IL, USA) using a Fusion Solo chemiluminescence analyzer (Vilber Rourmat Marne la Vallee, France). Antibodies to STAT3 (H-190), STAT3 (B-7) phosphorylated at Tyr705 and actin (C-2) were purchased from Santa Cruz Biotechnology. Rabbit monoclonal antibodies on AKT, AKT (D9E) phosphorylated at Ser473, FGFR1 phosphorylated at Tyr 653/654, p42/44 MAPK, phosphorylated p42/44 MAPK, p38 MAPK and p38 MAPK phosphorylated at Tyr 180/182 were purchased from Cell Signaling Technology (MA, USA). Further, HRP-conjugated goat anti-mouse and rabbit secondary antibodies were purchased from Jackson Laboratories, while BGJ398 used in the experiment (against FGFR1/2/3) was purchased from Selleckchem (USA).
Under this ground, in order to determine whether BGJ398 can vary the state of AKT and STAT3 in the sphere cultured SKOV3ip1 cells, the monolayer cultured (MC) or sphere cultured (SC) SKOV3ip1 cells were subjected to treatment using 5 μM BGJ398, followed by examining the degree of phosphorylation due to the above treatment.
Further, the sphere cultured SKOV3ip1 cells were treated with 5 μM BGJ398 (BGJ), 3 μM TAE648 (TAE) and 5 μM imatinib (IMT), respectively. After 72 hours, a cell lysate was obtained and subjected to immunostaining, followed by analyzing active cellular expression of AKT and STAT3 with the antibody for the same. Further, a phosphorylation level of FGFR1 was used as a positive control group relative to BGJ treatment groups while actin was used as a loading control group. The immunostaining assay procedure was implemented in the same manner as in Example 1.
Since the cell survival of the sphere cultured SKOV3ip1 cells is inhibited by BGJ398 treatment, whether such cell survival inhibition is intermediated through JAK/STAT3 signaling pathway was further examined. […]

Series [3] has as its system monolayer cultured SKOV3ip1 ovarian cancer cells. In words: crystal violet cell viability, 2D monolayer culture. The settings on record: monolayer cultured SKOV3ip1, 72 hours, different concentrations, crystal violet colorimeter (FIG. 3). How it is done: 2D monolayer culture was implemented in the following manner: cells were cultured at 37° C., 5% CO2 humidified atmosphere using RPMI 1640 medium (Corning, NY, USA) supplemented with 10% fetal bovine serum (Gibco, NY, USA) and 10 U/ml penicillin/streptomycin.
Crystal violet staining was implemented to determine the cell viability in the monolayer cultured cell model and sphere cultured cell model. In order to implement the crystal violet staining in the monolayer culture model, SKOV3ip1 cells (5×10^4) were dispensed in commercial 24-well plates and incubated overnight. Thereafter, the drug was dispensed with a desired concentration for experiment into each well, followed by further incubation for 72 hours. 300 μl of 0.2% crystal violet solution was added to each well, followed by further incubation for 20 minutes while gently stirring the same. The stained cells were washed with distilled water until a clean background is observed. For assessment using a colorimeter, the crystal violet dye was extracted with 1% SDS/PBS and absorbance was measured at 570 nm wavelength by EMax PLUS microplate reader (Molecular Device, USA).
as §2

Series [4] concerns sphere cultured SKOV3ip1 cells. In words: microscopic observation of aggregated (spheroid) form. The settings on record: 5 μM BGJ398, 3 μM TAE648, 5 μM imatinib (FIG. 5). How it is done:
as §1

In another series the test system is SKOV3-TR. Kind of series: crystal violet staining assay, cisplatin and BGJ398, 2D culture. The settings on record: 2D culture, cisplatin alone (FIG. 29). How it is done: (§3) According to the same procedures as described in the previous examples, each cell line was subjected to 2D culture and a change thereof upon administration of cisplatin alone, BGJ398 alone or in combination with cisplatin was analyzed through crystal violet staining assay.

A further series relates to SKOV3ip1. Described as above. As to conditions: SKOV3ip1, 2D culture, cisplatin alone (FIG. 29). The protocol:
as §3

Series [5] deals with SKOV3-TR ovarian cancer cells. Kind of series: crystal violet cell viability in paclitaxel-resistant cells. The protocol:
SKOV3-TR cell line was offered from Sood AK in MD-Anderson Cancer Center (USA) and then used in the present experiments.
Paclitaxel resistance of each of SKOV3 and SKOV3-TR was determined by measuring the cell viability through crystal violet colorimetric assay. This experiment was implemented three times and a difference in results thereof was estimated by student's t-test.
(§4) According to the same procedures as described in the previous examples, each cell line was divided and cultured by 2D monolayer culture and 3D sphere culture, respectively. Then, a change due to administration of BGJ398 alone or in combination with paclitaxel was analyzed through morphological analysis and crystal violet staining assay.

Series [6] deals with SKOV3-TR ovarian cancer cells. Kind of series: microscopic analysis of cell shape change due to cytotoxicity. The settings on record: single agent: 2.5 μM BGJ398 or 50 nM paclitaxel (FIG. 20). How it is done: as §4
FIG. 20 illustrates a change in cell shape due to cytotoxicity under microscopic analysis, when paclitaxel alone, BGJ398 alone or in combination with paclitaxel was administered to SKOV3-TR ovarian cancer cells.

The structures appear in SMILES notation.

On to `N#C/C(=C\c1ccc(O)c(O)c1)C(=O)NCc1ccccc1` [AG490, reference compound], for which the cell growth entry in series [1] (sphere cultured SKOV3ip1, AG490 3.125 to 50 μM, 72 hours (FIG. 7A)) was “did not suppress cell growth”. Moreover, in series [2] (sphere cultured SKOV3ip1, 5 μM BGJ398 (FIG. 6), AG490, 72 hours (FIG. 7B)), the “AKT and STAT3 phosphorylation” value was “not inhibited”.

As to `COc1cc(N2CCC(N3CCN(C)CC3)CC2)ccc1Nc1ncc(Cl)c(Nc2ccccc2S(=O)(=O)C(C)C)n1` [TAE684], the cell viability entry in series [3] is “reduced by paclitaxel and TAE648 in a dose-dependent manner”; in series [1] it was “TAE648 resistance was not identified”. The “aggregated (spheroid) form of cells” value in series [4] is given as “spheroid degradation was not observed”. In addition, in series [2], the “phosphorylated AKT at Ser473” value is “did not show such effects”.

As to `N.N.[Cl][Pt][Cl]` [cisplatin, reference compound], the sensitivity to cisplatin result with SKOV3-TR and in the series on SKOV3ip1 was “exhibit sensitivity to cisplatin” throughout.

`Cc1ccc(NC(=O)c2ccc(CN3CCN(C)CC3)cc2)cc1Nc1nccc(-c2cccnc2)n1` [imatinib]: the cell viability entry in series [3] is reported as “not effected”; in series [1], “did not affect the cell viability”. The “aggregated (spheroid) form of cells” value in series [4] is listed as “spheroid degradation was not observed”. Besides, the “phosphorylated AKT at Ser473” value in series [2] was “did not show such effects”.

For `CC(=O)O[C@H]1C(=O)[C@@]2(C)[C@H]([C@H](OC(=O)c3ccccc3)[C@]3(O)C[C@H](OC(=O)[C@H](O)[C@@H](NC(=O)c4ccccc4)c4ccccc4)C(C)=C1C3(C)C)[C@]1(OC(C)=O)CO[C@@H]1C[C@@H]2O` [paclitaxel, reference compound], the cell viability result in series [3] is “reduced by paclitaxel and TAE648 in a dose-dependent manner”; in series [1], “more obviously resistant to paclitaxel than the monolayer cultured SKOV3ip1 cells”. The paclitaxel resistance result in series [5] (SKOV3-TR compared with SKOV3, crystal violet colorimetric assay (FIG. 15)) is reported as “significantly higher than SKOV cell line”. For the same compound, in series [5] (paclitaxel alone (FIGS. 18, 19)), the anticancer activity entry was “negligible”. For the same compound, the “cytotoxicity and morphological change” value in series [6] was “negligible cytotoxicity and no morphological change”.

Source of the values: patent US11779582B2, “Composition for preventing or treating metastatic ovarian cancer, endometrial cancer or breast cancer” (LEMONEX INC., priority 2017, dated 2023).
